One series has as its target T1, DPAGT1 (Homo sapiens, UniProt Q9H3H5).
T1 construct: H. sapiens DPAGT1 (1-408, N-terminal 6 x HIS tag, TEV cleavage site); 6xHis purification tag with TEV site (N, cleaved yes); made in house; host or cells: Spodoptera frugiperda Sf9 insect cells (baculovirus)
T1 sequence (Q9H3H5 1-408): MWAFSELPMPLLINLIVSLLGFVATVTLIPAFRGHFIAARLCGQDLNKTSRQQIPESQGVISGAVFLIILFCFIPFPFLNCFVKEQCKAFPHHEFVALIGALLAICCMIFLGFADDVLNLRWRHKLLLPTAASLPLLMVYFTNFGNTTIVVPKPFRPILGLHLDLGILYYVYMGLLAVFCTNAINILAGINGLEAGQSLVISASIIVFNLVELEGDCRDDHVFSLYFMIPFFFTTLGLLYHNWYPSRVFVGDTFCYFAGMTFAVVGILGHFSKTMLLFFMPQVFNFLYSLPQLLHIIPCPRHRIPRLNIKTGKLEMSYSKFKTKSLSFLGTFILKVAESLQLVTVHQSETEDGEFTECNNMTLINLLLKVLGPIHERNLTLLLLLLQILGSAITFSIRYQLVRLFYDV
As to the kind of experiment: Radiolabeled substrate enzyme activity assay. It counts as biochemical, H. sapiens. The procedure: 2 μl of 2 μM DPAGT1 WT or mutant proteins in GFB buffer supplemented with 5mM extra MgCl2, 1% OGNG/CHS/cardiolipin and dolichyl monophosphate was combined with 2 μl of UDP-N-acetyl [1-14C] […] The reaction was terminated by the addition of 6 μl of 100% methanol and immediately transferred onto ice. 1 μl of sample was spotted onto a silica coated TLC plate in triplicate and run with a mobile phase consisting of chloroform, methanol, and water at a 65:25:4 ratio respectively. After the run, the TLC plate was dried thoroughly, wrapped in cling film, incubated with a phosphor imaging substrate for 4 days, then phosphor imaged using a Biorad. The pixel density of the spots corresponding to the hydrophobic product was divided by combined pixel density of the product and the substrate and multiplied by the known concentration of substrate added to ascertain the amount of product formed.

Another series has as its system B. subtilis EC1524. As to the kind of experiment: Micro-broth dilution and drop plate antimicrobial susceptibility test. It is filed as cell-based, Bacillus subtilis. Here is the method: (§1) In a sterile 96-well plate, serial dilutions were made with the test substance to final volume of 50 μl. Inoculum was then prepared in Mueller-Hinton broth to 0.5 McFarland and diluted before adding 50 μl to the well to make ∼1x10^5 CFU/ml. The culture plate was incubated at 35 °C for 20-24 hrs. A positive growth control and sterility wells were also prepared along with the culture wells. Absorbance at OD600 was taken using BMG Labtech SPECTROstar Omega spectrophotometer. MIC is determined by the lowest concentration without growth. IC50 is determined from plotting a dose-response curve, see Data Analysis below. To determine the MBC, using a multi-channel pipette, 1 μl of culture broth was taken from the same 96-well microdilution growth plate and carefully inoculated on surface of MH agar plate. The plate is then incubated for additional 20 hrs. at 35 °C. The MBC value is the lowest concentration without observed growth on the agar.

For a further series, the system named is B. cereus ATCC11778. The description is as above. It is filed as cell-based, Bacillus cereus. Here is the method: as §1
The next series has as its system E. coli ATCC25922. The description is as above. It is filed as cell-based. To be noted: Escherichia coli. Here is the method: as §1
A further series relates to P. aeruginosa ATCC27853. The series is described as above. It is filed as cell-based. To be noted: Pseudomonas aeruginosa. Here is the method:
as §1

A further series has as its system S. aureus ATCC29219. The series is described as above. It is filed as cell-based. Conditions: Staphylococcus aureus. The procedure: as §1
The test system of another series is Mtb H37Rv ATCC27294. Briefly: Minimum inhibitory concentrations testing against Mtb. It is filed as cell-based, Mycobacterium tuberculosis. Conditions: for MIC: Mycobacterium tuberculosis, 168 h.
In the next series the test system is HEK293 cells. Briefly: Cell proliferation assay (MTS). It counts as cell-based, human. The procedure:
(§2) In sterile 96-well plate, each well was seeded with ∼1x10^5 cells. The cells are then grown confluent overnight in 100 μl DMEM with 10% FBS. The medium is replenished with DMEM with 2% FBS and added vehicle control or test substance the next day. For test substance in methanol, stock was added to 25 μl of DMEM with 2% FBS or PBS and placed in the laminar flow hood to let the methanol evaporate (about 1-3 hrs). Once the methanol has evaporated, DMEM with 2% FBS was added to final volume of 100 μl of desired test concentration. […] Cells are grown for additional 24 hrs. The cell viability was determined by using Promega CellTiter 96^© AQueous One Solution Cell Proliferation Assay (3-(4,5-dimethylthiazol-2-yl)-5-(3-carboxymethoxyphenyl)-2-(4-sulfophenyl)-2H-tetrazolium, inner salt; MTS) System following the manufacture protocol.

Another series deals with HepG2 cells. As to the kind of experiment: Cell proliferation assay (MTS). It counts as cell-based, human. The procedure:
as §2

Another series has as its system Raji cells. Briefly: Cell proliferation assay (MTS). It counts as cell-based, human. Conditions: 24 hrs. The procedure:
as §2

The subject of series [1] is Mtb-infected J774A.1 macrophages. As to the kind of experiment: Efficacy against Mtb growing in infected macrophages. To be noted: J774A.1 macrophages treated 3 or 7 days.
The mark [2] stands for this setting: minimal lethal dose / MIC, 800 μg mL-1 used for >400.
Setting [3] is: MTS cell proliferation assay, 24 hrs, highest concentration 400 µg mL-1.
[4] abbreviates: serial 2-fold dilutions (Table S6).

≈ marks a conversion by molar mass, not a printed value. Like-named read-outs stand apart in the source and are kept apart here.

As for `CCCCCCCCC(=O)N[C@H]1[C@H](O[C@H]2O[C@H](CO)[C@@H](O)[C@H](O)[C@H]2NC(=O)CCCCCCCC)O[C@H](C[C@@H](O)[C@H]2O[C@@H](n3ccc(=O)[nH]c3=O)[C@H](O)[C@@H]2O)[C@H](O)[C@@H]1O` [TUN-9,9, Di-N-nonanoyl-tunicamycin], the “effect on DPAGT1 catalytic activity” value at DPAGT1 (purified DPAGT1 enzyme, Figure 6F) was “negligible effect”. The MIC in the series on B. subtilis EC1524 (B. subtilis, micro-broth dilution, mean ± SEM (n=3)) turned out to be 0.02 ± 0.01 µg/mL (≈ 0.0236 µM); with B. subtilis EC1524 (Bacillus subtilis, EC1524) it was 0.02 ± 0.01 µg/mL (≈ 0.0236 µM); with B. subtilis EC1524 (Bacillus subtilis, EC1524, read-out: Minimal Inhibitory Concentration, B. subtilis EC1524), 0.024 µg/mL (≈ 0.0283 µM); against B. cereus ATCC11778 (Bacillus cereus, ATCC11778), 0.65 ± 0.23 µg/mL (≈ 0.767 µM); in the series on B. cereus ATCC11778 (Bacillus cereus, ATCC 11778 / NRRL11778, read-out: Minimal Inhibitory Concentration, B. cereus NRRL 11778), 0.78 µg/mL (≈ 0.921 µM); in the series on E. coli ATCC25922, 330 ± 120 µg/mL (≈ 390 µM). Besides, the MIC against P. aeruginosa ATCC27853 turned out to be 83 ± 29 µg/mL (≈ 98 µM); against S. aureus ATCC29219 it was 83 ± 29 µg/mL (≈ 98 µM); in the series on Mtb H37Rv ATCC27294 (read-out: 1-week MIC in 7H9/ADC/Tw), 0.2 ± 0.02 µg/mL (≈ 0.236 µM); in the series with Mtb H37Rv ATCC27294 (read-out: 1-week MIC in GAST/Fe), 0.03 ± 0.001 µg/mL (≈ 0.0354 µM); in the series with Mtb H37Rv ATCC27294 (read-out: Minimal Inhibitory Concentration, Mtb H37RV a) it was 0.2 µg/mL (≈ 0.236 µM); in the series with Mtb H37Rv ATCC27294 (read-out: Minimal Inhibitory Concentration, Mtb H37RV b), 0.03 µg/mL (≈ 0.0354 µM). For the same molecule, the IC50 (in general, the concentration needed to halve the response being measured) with B. subtilis EC1524 (Bacillus subtilis, EC1524) was 0.015 µg/mL (≈ 0.0177 µM); in the series with B. cereus ATCC11778 (Bacillus cereus, ATCC11778), 0.072 µg/mL (≈ 0.085 µM); with E. coli ATCC25922 it was 87.1 µg/mL (≈ 103 µM); with P. aeruginosa ATCC27853, 55 µg/mL (≈ 64.9 µM); in the series on S. aureus ATCC29219, 48.9 µg/mL (≈ 57.8 µM). The MBC (usually the lowest tested concentration that kills the bacteria rather than only halting them) was greater than 0.05 µg/mL with B. subtilis EC1524 (Bacillus subtilis, EC1524); greater than 25 µg/mL with B. cereus ATCC11778 (Bacillus cereus, ATCC11778); 400 µg/mL (≈ 472 µM) in the series on E. coli ATCC25922; 400 µg/mL (≈ 472 µM) in the series on P. aeruginosa ATCC27853; 400 µg/mL (≈ 472 µM) against S. aureus ATCC29219. The “Relative Therapeutic Index (RTI), B. subtilis EC1524” value in the series on B. subtilis EC1524 (setting [2]) worked out at 33300. Also, the “Relative Therapeutic Index (RTI), B. cereus NRRL 11778” value with B. cereus ATCC11778 (setting [2]) amounted to 1026. Further, in the series on Mtb H37Rv ATCC27294 (Mtb H37Rv, minimal growth medium), the “1-week MIC in GAST/Fe” value is 0.03 ± 0.001 µg/mL. Moreover, the “potency (MIC) relative to tunicamycin” value in the series with Mtb H37Rv ATCC27294 (Mtb H37Rv, more potent than tunicamycin) is roughly 5 fold. Also, the “Relative Therapeutic Index (RTI), Mtb H37RV a” value in the series on Mtb H37Rv ATCC27294 (minimal lethal dose / MIC, 7H9/ADC/Tw, 800 μg mL-1 used for >400) was determined as 4000. In addition, the “Relative Therapeutic Index (RTI), Mtb H37RV b” value with Mtb H37Rv ATCC27294 (minimal lethal dose / MIC, GAST/Fe, 800 μg mL-1 used for >400) is listed as 27000. In addition, the “LD50 values, HEK293” value in the series with HEK293 cells (setting [3]) is reported as “N/A (N/A = not available. No or low cytotoxicity observed at highest, saturating concentration tested (400 µg mL-1))”. The “Minimal Lethal Dose, HEK 293” value with HEK293 cells (setting [4]) was greater than 400 µg/mL. In addition, the “LD50 values, HepG2” value with HepG2 cells (setting [3]) was “N/A (N/A = not available. No or low cytotoxicity observed at highest, saturating concentration tested (400 µg mL-1))”. For the same molecule, the “Minimal Lethal Dose, HepG2” value in the series with HepG2 cells (setting [4]) is greater than 400 µg/mL. Further, the “LD50 values, Raji” value with Raji cells turned out to be 355.57 ± 194.57 µg/mL. Further, the “reduction of intracellular bacterial burdens” value in series [1] (1 × MIC) is 1 logs; in [1] (10 × MIC), 2 logs.
Turning to “N-Acetyl-1-[P’-(3Z,7Z,11Z,15Z,19Z,23Z,27Z,31E,35E,39E,43-undecamethyl-2,6,10,14,18,22,26,30,34,38,42-tetratetracontaundecaenyl) P,P'-dihydrogen diphosphate]-α-d-glucosamine diammonium salt [GlcNAc-PP-Und]”, on DPAGT1 (equimolar to Dol-P and UDP-GlcNAc), the “reduction of DPAGT1 activity on adding product analogue” value is on record as 3 fold.

These data come from PMC6218659, “Structures of DPAGT1 Explain Glycosylation Disease Mechanisms and Advance TB Antibiotic Design” (Cell, 2018).
